From patent publication US6635621B1, “Cysteine protease inhibitors” (Naeja Pharmaceutical Inc., priority 1999, dated 2003)

Columns and labels:
cathepsin K = target: T1, cathepsin K (Homo sapiens, UniProt P43235); assay: In vitro assay for inhibition of cathepsin K; format: biochemical; details: r cathepsin K, substrate N-CBZ-Phe-Arg-AMC, pH 5.5, 10 min incubation at room temperature
T1 sequence (P43235 115-329): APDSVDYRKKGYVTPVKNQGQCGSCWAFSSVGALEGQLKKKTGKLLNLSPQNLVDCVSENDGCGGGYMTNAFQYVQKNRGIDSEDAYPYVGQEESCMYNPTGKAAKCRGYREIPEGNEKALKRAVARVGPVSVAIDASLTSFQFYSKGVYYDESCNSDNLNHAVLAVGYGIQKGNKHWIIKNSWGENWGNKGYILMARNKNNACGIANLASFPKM
Description: In Vitro Assay Procedure for Cathepsin K
(§1) To a 170 μl of enzyme-buffer mixture (enzyme: r cathepsin K, diluted to give approximate 30 F units/min, buffer: 100 mM sodium acetate, 5 mM EDTA, 20 mM L-cysteine, 0.01% Brij, pH 5.5) a 10 μL of inhibitor (dissolved in DMSO) was added. After 10 min of incubation at room temperature, a 20 μl of 2.7 mM substrate (N-CBZ-Phe-Arg-AMC, dissolved in DMSO) was added to initiate reaction. Reading is followed up for 10 min at the fluoroscan II plate reader (excitation at 380 nm emission at 460 nm).
(§2) A plot of percentage of inhibition vs inhibitor concentration is obtained, and IC50 is determined using a linear regression calculations (concentration of inhibitor which will give 50% inhibition).

rat cathepsin L = rat cathepsin L (Rattus norvegicus, UniProt P07154); assay: In vitro assay for inhibition of cathepsin L; format: biochemical; details: r rat cathepsin L, substrate N-CBZ-Phe-Arg-AMC, pH 5.0, 10 min incubation at room temperature
Description: In Vitro Assay Procedure for Cathepsin L
To a 170 μl of enzyme-buffer mixture (enzyme: r rat cathepsin L, diluted to give approximate 15 F units/min, buffer: 58.8 mM sodium citrate, 1.18 mM EDTA, 235 mM sodium chloride, 5 mM […], pH 5.0) a 10 μL of inhibitor (dissolved in DMSO) was added. After 10 min of incubation at room temperature, a 20 μl of 1 mM substrate (N-CBZ-Phe-Arg-AMC, dissolved in DMSO) was added to initiate reaction. Reading is followed up for 10 min at the fluoroscan reader (excitation at 380 nm emission at 460 nm).
as §2

cathepsin S = cathepsin S (Homo sapiens, UniProt P25774); assay: In vitro assay for inhibition of cathepsin S; format: biochemical; details: r cathepsin S, substrate N-CBZ-Val-Val-Arg-AMC, pH 6.5, 10 min incubation at room temperature
Description: In Vitro Assay Procedure for Cathepsin S
as §1, with “S,” for “K,”, “phosphate, 1 mM EDTA,” for “acetate,”, “DTT,” for “EDTA, 20 mM L-cysteine,”, “6.5)” for “5.5)”, “1.2” for “2.7”, “(N-CBZ-Val-Val-Arg-AMC,” for “(N-CBZ-Phe-Arg-AMC,”
as §2

rat cathepsin B = rat cathepsin B (Rattus norvegicus, UniProt P00787); assay: In vitro assay for inhibition of cathepsin B; format: biochemical; details: r rat cathepsin B, substrate N-CBZ-Phe-Arg-AMC, pH 5.1, 10 min incubation at room temperature
Description: In Vitro Assay Procedure for Cathepsin B
The compounds of formula I were tested for inhibition of cathepsin B using the known method (A. J. Barret et al., Biochem. J. 1982, 201, 189-198). To a 170 μl of enzyme-buffer mixture (enzyme: r rat cathepsin B, diluted to give approximate 10 F units/min, buffer: 56 mM sodium acetate, 1.124 mM EDTA, 10 mM DTT, pH 5.1) a 10 μL of inhibitor (dissolved in DMSO) was added. After 10 min of incubation at room temperature, a 20 μl of 5 mM substrate (N-CBZ-Phe-Arg-AMC, dissolved in DMSO) was added to initiate reaction. Reading is followed up for 10 min at the fluoroscan reader (excitation at 380 nm emission at 460 nm).
as §2

Sequence of rat cathepsin B (P00787 80-333): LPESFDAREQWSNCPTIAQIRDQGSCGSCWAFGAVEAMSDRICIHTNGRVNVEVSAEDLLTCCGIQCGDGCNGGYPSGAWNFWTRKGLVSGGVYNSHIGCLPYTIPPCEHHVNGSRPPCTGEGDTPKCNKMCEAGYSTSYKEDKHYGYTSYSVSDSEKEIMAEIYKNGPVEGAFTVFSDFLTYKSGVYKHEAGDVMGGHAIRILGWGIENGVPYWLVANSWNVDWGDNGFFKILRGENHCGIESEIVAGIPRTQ
Sequence of rat cathepsin L (P07154 114-334): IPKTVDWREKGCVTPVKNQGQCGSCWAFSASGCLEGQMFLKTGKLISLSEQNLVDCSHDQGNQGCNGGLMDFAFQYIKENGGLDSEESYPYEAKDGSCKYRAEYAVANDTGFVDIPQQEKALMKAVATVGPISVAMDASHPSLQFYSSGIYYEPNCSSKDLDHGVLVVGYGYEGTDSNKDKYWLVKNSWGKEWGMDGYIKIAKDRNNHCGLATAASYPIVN
Sequence of cathepsin S (P25774 115-331, species assumed): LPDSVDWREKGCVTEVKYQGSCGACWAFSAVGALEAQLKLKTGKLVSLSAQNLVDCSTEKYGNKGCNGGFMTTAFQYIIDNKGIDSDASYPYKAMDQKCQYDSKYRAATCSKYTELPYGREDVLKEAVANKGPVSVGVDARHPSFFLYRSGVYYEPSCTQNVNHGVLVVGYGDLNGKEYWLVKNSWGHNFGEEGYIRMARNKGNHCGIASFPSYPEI

Row | SMILES | IC50 (cathepsin K) [µM] | IC50 (rat cathepsin L) [µM] | IC50 (cathepsin S) [µM] | IC50 (rat cathepsin B) [µM] | melting point [°C]
1 | CC(C)C[C@H](NC(=O)OCc1ccccc1)C(=O)N/C(=C/N1CCOCC1)C(=O)c1ccccc1 [Example 27, 2-[2S-(Benzyloxycarbonylamino)-2-isopropylmethyl-acetamido]-2-(morpholino-1-methylenyl)-acetophenone] | 0.14 | 4.24 | 52.2 | 32.3 | –
2 | CC(C)C[C@H](NC(=O)OCc1ccccc1)C(=O)N/C(=C\N1CCN(C)CC1)C(N)=O [Example 17, 2-(2S-2-Benzyloxycarbonylamino-2-isopropylmethyl-acetamido)-3-(4-methylpiperazino)-acrylamide] | 0.019 | 0.23 | 0.18 | 1.9 | 93.5 to 95
3 | CCOC(=O)/C(=C\N1CCOCC1)NC(=O)[C@H](CC(C)C)NC(=O)OCc1ccccc1 [Example 23, Ethyl-2-[2S-(benzyloxycarbonylamino)-2-isopropylmethyl-acetamido]-2-(morpholino-1-methylenyl)-acetate] | 0.011 | 0.089 | 0.038 | 0.45 | –
4 | CC(C)C[C@H](NC(=O)OCc1ccccc1)C(=O)N/C(=C/N1CCOCC1)C(=O)c1ccc(F)cc1 [Example 29, 2-[2S-(Benzyloxycarbonylamino)-2-isopropylmethyl-acetamido]-2-(morpholino-1-methylenyl)-4′-fluoroacetophenone] | 0.34 | 2.01 | 50.3 | 50.3 | –
5 | COc1ccc(C(=O)/C(=C\N2CCOCC2)NC(=O)[C@H](CC(C)C)NC(=O)OCc2ccccc2)cc1 [Example 28, 2-[2S-(Benzyloxycarbonylamino)-2-isopropylmethyl-acetamido]-2-(morpholino-1-methylenyl)-4′-methoxyacetophenone] | 0.016 | 0.27 | 1.3 | 1.96 | –
6 | CC(C)C[C@H](NC(=O)OCc1ccccc1)C(=O)N/C(=C/N1CCOCC1)C(=O)OC(C)(C)C [Example 20, tert-Butyl-2-[2S-(benzyloxycarbonylamino)-2-isopropylmethyl-acetamido]-2-(morpholino-1-methylenyl)-acetate] | 0.004 | 0.08 | 0.38 | 0.42 | –
7 | CCOC(=O)/C(=C\N1CCOCC1)NC(=O)[C@H](CC1CCCCC1)NC(=O)OCc1ccccc1 [Example 24, Ethyl-2-[2S-(benzyloxycarbonylamino)-2-cyclohexylmethyl-acetamido]-2-(morpholino-1-methylenyl)-acetate] | 0.37 | 0.082 | 0.0033 | 0.082 | –
8 | COc1ccc(C(=O)/C(=C\N2CCOCC2)NC(=O)[C@H](CC(C)C)NC(=O)c2cc3ccccc3s2)cc1 [Example 26, 2-[2S-(Benzothiophen-2-carbonylamino)-2-isopropylmethyl-acetamido]-2-(morpholino-1-methylenyl)-4′-methoxyacetophenone] | 0.015 | 0.075 | 0.99 | 1.47 | –
9 | CCOC(=O)/C(=C\N1CCN(C)CC1)NC(=O)[C@H](CC(C)C)NC(=O)OCc1ccccc1 [Example 21, Ethyl-2-[2S-(benzyloxycarbonylamino)-2-isopropylmethyl-acetamido]-2-(4-methylpiperazino-1-methylenyl)-acetate] | 0.087 | 0.21 | 0.3 | 8.21 | –
10 | CCOC(=O)/C(=C\N1CCOCC1)NC(=O)[C@H](Cc1ccccc1)NC(=O)OCc1ccccc1 [Example 22, Ethyl-2-[2S-(benzyloxycarbonylamino)-2-phenylmethyl-acetamido]-2-(morpholino-1-methylenyl)-acetate] | 0.04 | 0.04 | 0.42 | 0.08 | –
11 | NC(=O)C(NC(=O)[C@H](Cc1ccccc1)NC(=O)OCc1ccccc1)C(O)O (stereo partly drawn) [Example 13, 2-(2S-2-Benzyloxycarbonylamino-2-benzyl-acetamido)-3,3-dihydroxy-propionamide] | 0.4 | 0.004 | 0.004 | 1.4 | –
12 | O=C(CCc1ccccc1)N[C@@H](Cc1ccccc1)C(=O)N/C(=C/N1CCOCC1)C(=O)OC(c1ccccc1)c1ccccc1 [Example 25, Diphenylmethyl-2-[2S-(3-phenylpropionylamino)-2-phenylmethyl-acetamido]-2-(morpholino-1-methylenyl)-acetate] | 0.065 | 0.18 | 0.18 | 0.06 | –
13 | CC(C)C[C@H](NC(=O)OCc1ccccc1)C(=O)NC(=CNCc1ccccc1)C(=O)NCc1ccccc1 [Example 16, 2-(2S-2-Benzyloxycarbonylamino-2-isopropylmethyl-acetamido)-3-benzylamino-N-benzyl-acrylamide] | 0.01 | 0.015 | 0.026 | 0.15 | –

Second part, the compound after the results:

Row | IC50 (cathepsin K) [µM] | IC50 (rat cathepsin L) [µM] | IC50 (cathepsin S) [µM] | IC50 (rat cathepsin B) [µM] | melting point [°C] | SMILES
14 | 1.42 | 8.62 | 0.013 | 45.2 | 73 to 76 | CC(=O)N/C=C(/NC(=O)[C@H](CC(C)C)NC(=O)OCc1ccccc1)C(N)=O [Example 10a, (2E)-(2S-2-Benzyloxycarbonylamino-2-isopropylmethyl-acetamido)-3-acetamido-acrylamide]
15 | 0.28 | 0.048 | 0.57 | 1.83 | – | COC(=O)[C@H](Cc1ccccc1)N/C=C(/NC(=O)[C@H](Cc1ccccc1)NC(=O)OCc1ccccc1)C(N)=O [Example 30a, (2E)-(2S-2-Benzyloxycarbonylamino-2-phenylmethyl-acetamido)-3-(1-carbomethoxy-2-phenethylamino)-acrylamide]
16 | 0.09 | 0.017 | 0.43 | 0.43 | – | COC(=O)CN/C=C(\NC(=O)[C@H](Cc1ccccc1)NC(=O)OCc1ccccc1)C(N)=O [Example 31b, (2Z)-(2S-2-Benzyloxycarbonylamino-2-phenylmethyl-acetamido)-3-(1-carbomethoxy-methylamino)-acrylamide]
17 | 0.28 | 0.035 | 1.21 | 1.83 | – | COC(=O)[C@H](Cc1ccccc1)N/C=C(\NC(=O)[C@H](Cc1ccccc1)NC(=O)OCc1ccccc1)C(N)=O [Example 30b, (2Z)-(2S-2-Benzyloxycarbonylamino-2-phenylmethyl-acetamido)-3-(1-carbomethoxy-2-phenethylamino)-acrylamide]
18 | > 58 | ≥ 58 | 5.23 | > 58 | – | CC(=O)N/C=C(\NC(=O)[C@H](CC1CCCCC1)NC(=O)OCc1ccccc1)C(N)=O [Example 19b, (2Z)-(2S-2-Benzyloxycarbonylamino-2-cyclohexylmethyl-acetamido)-3-acetamido-acrylamide]
19 | 10.7 | > 64 | > 3.2 | 50.5 | – | CC(=O)N/C=C(\NC(=O)[C@H](CC(C)C)NC(=O)OCc1ccccc1)C(N)=O [Example 10b, (2Z)-(2S-2-Benzyloxycarbonylamino-2-isopropylmethyl-acetamido)-3-acetamido-acrylamide]
20 | 0.13 | 0.017 | 0.7 | 0.66 | – | COC(=O)CN/C=C(/NC(=O)[C@H](Cc1ccccc1)NC(=O)OCc1ccccc1)C(N)=O [Example 31a, (2E)-(2S-2-Benzyloxycarbonylamino-2-phenylmethyl-acetamido)-3-(1-carbomethoxy-methylamino)-acrylamide]
